Where two headings read alike, the source gives them in different places.

Test [1] concerns MDA MB-231 cell line (Breast). Nature of the test: MTT cell proliferation assay, MDA MB-231. Format: cell-based, human. The following applies: read-out: IC50 μM MDA MB-231 (Breast). On the procedure:
(§1) Cell Culture: The human breast cancer epithelial cell lines MDA-MB-231 (HTB-26™), MCF-7 (HTB-22™), colon cancer cell lines HCT 116 (CCL-247™) and […] (CCL-244™) were obtained from American Type Culture Collection (ATCC). Additionally, KAIMRC1 cell line was isolated and developed at KAIMRC from a breast cancer patient. All the cells were grown in advanced DMEM containing 10% fetal bovine serum (FBS), 50 units/mL penicillin, 50 ug/mL streptomycin (GIBCO), and 2 mM glutamine (GIBCO). The cells were cultured at 37° C. in a humidified 5% CO2 atmosphere for 24 hours before experimental procedure.
(§2) Cell Proliferation Assay (MTT): Cells were plated on flat-bottom 96-well plates at a density of 5×10^3 cells/well in 100 μL growth medium. Serial dilutions of the compounds, ranging from 100 nM-100 μM were tested on the cells in triplicates. Additional rows with only the compounds and only cells were added in order to account for the compounds and cells effect. Cells were incubated with compounds for 48 h at 37° C. with 5% CO2.
(§3) After 48 h treatment, the cell viability was determined using the MTT viability assay. Briefly, 5 μL of MTT reagent (5 mg/mL stock) per 95 μl cell culture medium was added to each well and incubated for 3 h at 37° C. with 5% CO2. After 3 h the supernatant was removed, and the MTT formazan crystals were dissolved in dimethyl sulfoxide (DMSO) by shaking the plate for 30 mins at RT. The absorbance was measured on Molecular Devices microplate absorbance reader at 560 nm. The percentage of viable cells was calculated as the ratio of the absorbance of the treated group divided by the absorbance of the control group multiplied by 100. The absorbance from the untreated control cells was set as 100% viable. IC50 values were calculated from dose-response curves generated using a polynomial dose-response approximation using Prism 8 software. The IC50 values (µM) obtained for the compounds of present invention on MDA-MD 231 (breast), MCF-7 (breast), KAIMRC1 (breast), HCT116 (colon) and HCT8 (colon) are summarized in Table 5 and 6.
A general note: Tetrazolium assays rely on reduction of a dye to a coloured formazan, in cell work by metabolically active cells.

The subject of test [2] is HCT116 (Colon). Description: MTT cell proliferation assay, HCT116. The following applies: read-out: IC50 μM HCT116 (Colon). Format: cell-based, human. As to the method: as §1, §2, §3
For test [3], the system named is MCF-7 (Breast). Nature of the test: MTT cell proliferation assay, MCF-7. The test is classed as cell-based, human. As to conditions: read-out: IC50 μM MCF-7 (Breast). As to the method:
as §1, §2, §3

Test [4] relates to KAIMRC1 (Breast). Description: MTT cell proliferation assay, KAIMRC1. Format: cell-based, human. As to conditions: read-out: IC50 μM KAIMRC1 (Breast).
Excerpt: The immortalized cell lines included in the testing panel of this disclosure are MCF7 (a breast cancer cell line), MCF10 (immortalized human breast epithelial cells), MDA-MB231 (an epithelial, human breast cancer cell line that was established from a pleural effusion of a patient with a metastatic mammary adenocarcinoma), KAIMRC1 (a naturally immortalized human breast carcinoma cell line), KAIMRC2 (a naturally immortalized breast cancer cell line). The primary cells available for lead toxicity assays are, without limitation: hepatocytes (supplied by Xenotech, Bioscience Lonza, Accegen, Biocompare, Gibco, Zen-Bio, Takarabio, AxolBio, Creative Bioarray), cardiomyocytes (supplied by Cellartis, Axolbio, Cedarlanelabs, EMD Millipore, Takara Bio, Neuromics, AcceGene), primary neurons (AcceGen, Cellapplications, Neuromics, Biocompare, AxolBio, BrainXcell), endothelial lining (Thermofisher, Accegen, Biocompare, Promocell, ATCC). Multicellular 3D organoids raised by differentiating iPSC (induced pluripotent stem cells) are provided by Sigma Aldrich (the iPSC cell lines, organoids), Tocris Bioscience, Thermofisher, Stemcell Technologies, Takara Bio, Emulatebio (Human organ chips), Prodolabs.
as §1, §2, §3

For test [5], the system named is HL 60 (leukemia). Nature of the test: Cell Titre Glo luminescent cell viability assay, HL 60. The test is classed as cell-based. The following applies: Cell Titre Glo luminescence, normalized to DMSO controls.
Excerpt: (§4) Another embodiment discloses Titer Glo Assay for the characterization of the synthesized compounds. The CellTiter-Glo® Luminescent Cell Viability Assay is a homogeneous method of determining the number of viable cells in culture based on quantitation of the ATP present, an indicator of metabolically active cells. The CellTiter-Glo® Assay is designed for use with multiwell formats, making it ideal for automated high-throughput screening (HTS), cell proliferation, and cytotoxicity assays. The homogeneous assay procedure involves adding the single reagent (CellTiter-Glo® Reagent) directly to cells cultured in serum-supplemented medium. Cell washing, removal of medium, and multiple pipetting steps are not required. The system detects as few as 15 cells/well in a 384-well format in 10 minutes after adding reagent and mixing.
as §1
(§5) Cell Titre Glo assay was performed on two Leukemia cell lines, HL 60 and ThP1 as per manufacturer's (Promega) recommendations. Briefly, plates were prepared as mentioned in cell culture section. 100 µL of Cell Titre Glo was added directly to the wells. After incubation for 30 minutes at room temperature, luminescence was measured using the Envision plate reader (Perkin Elmer). Luminescence readings were normalized to averaged DMSO controls and expressed as relative percentage. IC50 values were calculated from dose-response curves generated using a polynomial dose-response approximation using Prism 8 software.

Test [6] has as its system ThP1 (leukemia). Nature of the test: Cell Titre Glo luminescent cell viability assay, ThP1. Format: cell-based. As to conditions: Cell Titre Glo luminescence, normalized to DMSO controls.
Excerpt: as §4, §1, §5

The subject of test [7] is HCT 8 (Colon). Description: MTT cell proliferation assay, HCT 8. The test is classed as cell-based, human. As to conditions: read-out: IC50 μM HCT 8 (Colon). On the procedure: as §1, §2, §3
The mark [8] stands for this setting: Homo sapiens, MDA-MB-231, MTT, 48 h treatment, medium with 10% FBS.
Where [9] appears, read: Homo sapiens, HCT-116, MTT, 48 h treatment, medium with 10% FBS.
Where [10] appears, read: Homo sapiens, MCF7, MTT, 48 h treatment, medium with 10% FBS.
[11] abbreviates: Homo sapiens, HCT-8, MTT, 48 h treatment, medium with 10% FBS.
The mark [12] stands for this setting: Homo sapiens, MTT, 48 h treatment, medium with 10% FBS.
[13] abbreviates: MTT, 48 h treatment, medium with 10% FBS.

On to `O=C1NC(=O)C(=C/C=C/c2c3ccccc3cc3ccccc23)C(=O)N1` [Example 1, 5-(3-ANTHRACEN-9-YL-ALLYLIDENE)-PYRIMIDINE-2,4,6-TRIONE], for which the IC50 in test [1] (Homo sapiens, MDA-MB-231, 48 h) worked out at 52 µM; in test [2] (Homo sapiens, HCT-116, 48 h) it was 27.1 µM; in test [3] (Homo sapiens, MCF7, 48 h), 10.5 µM.
In the case of `CCC1(C)OC(=O)C(=C/C=C/c2c3ccccc3cc3ccccc23)C(=O)O1` (stereo not shown) [Example 2, 5-(3-ANTHRACEN-9-YL-ALLYLIDENE)-2-ETHYL-2-METHYL-[1,3]DIOXANE-4,6-DIONE], the IC50 in test [1] (setting [8]) amounted to 25.2 µM.
Regarding `O=C1NC(=O)C(=C/C=C/c2ccnc3ccccc23)C(=O)N1` [Example 6, 5-(3-QUINOLIN-4-YL-ALLYLIDENE)-PYRIMIDINE-2,4,6-TRIONE], the IC50 turned out to be 21.2 µM in test [1] (Homo sapiens, MDA-MB-231, 48 h); 31.9 µM in test [3] (Homo sapiens, MCF7, 48 h); 18 µM in test [4] (Homo sapiens, 48 h).
Regarding `CC1(C)OC(=O)C(=CC=Cc2ccnc3ccccc23)C(=O)O1` [Example 11, 2,2-DIMETHYL-5-(3-QUINOLIN-4-YL-ALLYLIDENE)-[1,3]DIOXANE-4,6-DIONE], the IC50 in test [5] (Homo sapiens, HL-60) was determined as 1.86 µM; in test [1] (setting [8]), 14.1 µM; in test [2] (setting [9]) it was 10.4 µM; in test [6] (Homo sapiens, THP-1), 1.68 µM; in test [3] (setting [10]), 19.7 µM; in test [7] (setting [11]), 14.1 µM. In addition, the IC50 in test [4] (setting [12]) was determined as 33.2 µM.
Turning to `CCCC1(C)OC(=O)C(=CC=Cc2ccnc3ccccc23)C(=O)O1` (stereo not shown) [Example 14, 2-METHYL-2-PROPYL-5-(3-QUINOLIN-4-YL-ALLYLIDENE)-[1,3]DIOXANE-4,6-DIONE], the IC50 in test [1] (setting [8]) was determined as 15.5 µM; in test [2] (setting [9]), 15.4 µM; in test [3] (setting [10]), 15.2 µM; in test [7] (setting [11]) it was 18.9 µM; in test [4] (setting [12]), 27.6 µM.
`O=C1OC2(CCC2)OC(=O)C1=CC=Cc1ccnc2ccccc12` [Example 15, 7-(3-QUINOLIN-4-YL-ALLYLIDENE)-5,9-DIOXA-SPIRO[3.5]NONANE-6,8-DIONE]: in test [1] (setting [8]), the IC50 came to 7.84 µM.
On to `O=C1OC2(CCC2)OC(=O)C1=CC=Cc1cncc2ccccc12` [Example 16, 7-(3-ISOQUINOLIN-4-YL-ALLYLIDENE)-5,9-DIOXA-SPIRO[3.5]NONANE-6,8-DIONE], for which the IC50 in test [2] (setting [9]) was 8.04 µM; in test [3] (setting [10]) it was 5.44 µM; in test [7] (setting [11]), 6.01 µM; in test [4] (setting [12]) it was 8.09 µM.
As to `O=C1OC2(CCCCC2)OC(=O)C1=CC=Cc1ccnc2ccccc12` [Example 17, 3-(3-QUINOLIN-4-YL-ALLYLIDENE)-1,5-DIOXA-SPIRO[5.5]UNDECANE-2,4-DIONE], the IC50 in test [1] (setting [8]) was 13 µM; in test [2] (setting [9]) it was 13.7 µM; in test [3] (setting [10]), 17.3 µM; in test [7] (setting [11]), 12.9 µM; in test [4] (setting [12]), 19.6 µM.
Take `CC1(C)OC(=O)C(=CC=Cc2cccc3ccccc23)C(=O)O1` [Example 18, 2,2-DIMETHYL-5-(3-NAPHTHALEN-1-YL-ALLYLIDENE)-[1,3]DIOXANE-4,6-DIONE]: the IC50 in test [7] (setting [11]) came to 5.78 µM; in test [4] (setting [12]) it was 6.54 µM.
Take `CCC1(C)OC(=O)C(=CC=Cc2cccc3ccccc23)C(=O)O1` (stereo not shown) [Example 19, 2 ETHYL,2-METHYL-5-(3-NAPHTHALEN-1-YL-ALLYLIDENE)-[1,3]DIOXANE-4,6-DIONE]: the IC50 was 5.92 µM in test [1] (setting [8]); 2.44 µM in test [2] (setting [9]); 5.82 µM in test [3] (setting [10]); 2.95 µM in test [7] (setting [11]); 5.82 µM in test [4] (setting [12]).
Take `O=C1OC2(CCC2)OC(=O)C1=CC=Cc1cccc2ccccc12` [Example 20, 7-(3-NAPHTHALEN-1-YL-ALLYLIDENE)-5,9-DIOXA-SPIRO[3.5]NONANE-6,8-DIONE]: the IC50 was 2.41 µM in test [5] (Homo sapiens, HL-60); 4.84 µM in test [2] (setting [9]); 2.04 µM in test [6] (Homo sapiens, THP-1); 4.24 µM in test [3] (setting [10]); 3.87 µM in test [7] (setting [11]); 11.9 µM in test [4] (setting [12]).
Consider `CCC1(C)OC(=O)C(=CC=Cc2ccc(OC)c3ccccc23)C(=O)O1` (stereo not shown) [Example 21, 2-ETHYL-5-[3-(4-METHOXY-NAPHTHALEN-1-YL)-ALLYLIDENE]-2-METHYL-[1,3]DIOXANE-4,6-DIONE], for which the values for the IC50 in test [1] (setting [8]) and in test [2] (setting [9]) were 17 µM and 50 µM, respectively.
Regarding `CC1(C)OC(=O)C(=CC#Cc2cccc3ccccc23)C(=O)O1` [Example 28, 2,2-DIMETHYL-5-(3-NAPHTHALEN-1-YL-PROP-2-YNYLIDENE)-[1,3]DIOXANE-4,6-DIONE], the IC50 in test [7] (Homo sapiens, HCT-8, 48 h) worked out at 8.82 µM; in test [4] (Homo sapiens, 48 h) it was 7.36 µM.
For the compound `CC1(C)OC(=O)C(=CC=Cc2cccc3occc23)C(=O)O1` [Example 32, 5-(3-BENZOFURAN-4-YL-ALLYLIDENE)-2,2-DIMETHYL-[1,3]DIOXANE-4,6-DIONE], the IC50 in test [1] (setting [8]) worked out at 7.5 µM; in test [2] (setting [9]), 34.2 µM.
With `O=C1c2c(O)ccc(O)c2C(=O)c2c(NCCNCCO)ccc(NCCNCCO)c21` [Mitoxanthrone, reference compound], the IC50 was determined as 0.7 µM in test [5]; 0.51 µM in test [1] (setting [13]); 0.71 µM in test [2] (setting [13]); 0.22 µM in test [6]; 3.61 µM in test [3] (setting [13]); 1.25 µM in test [7] (setting [13]). The IC50 in test [4] (setting [13]) came out at 10.1 µM.

A word on the IC50: it is the point on the concentration scale where inhibition reaches its midpoint.

Source of the values: patent US11161823B2, “Anticancer 1,3-dioxane-4,6-dione derivatives and method of combinatorial synthesis thereof” (National Guard Health Affairs, priority 2019, dated 2021).
